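Step 1: Grow cells in 96-well plates. Step 2: Expose to compound for 48 hours at 5 concentrations. Step 3: Interpolate endpoints linearly; if unreached, use highest concentration. GI50 = concentration required for 50% inhibition of growth.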 The source made the active and inactive calls. No stated cut-off is given here; in the data, active = GI50 up to about 1.1 µM and inactive = higher.
What was measured:
Test in all cases: growth of human tumour cells (NCI), 48 h
[1] = tested on: MOLT-4
[2] = tested on: UACC-257
[3] = tested on: SF-268
[4] = tested on: A549
[5] = tested on: NCI-H460
[6] = tested on: MDA-N
[7] = tested on: Malme-3M
[8] = tested on: HOP-92
[9] = tested on: RPMI-8226
[10] = tested on: T47D
[11] = tested on: SW-620
[12] = tested on: SK-OV-3
[13] = tested on: UACC-62
[14] = tested on: HCT-116
[15] = tested on: OVCAR-8
[16] = tested on: U-251
[17] = tested on: TK-10
[18] = tested on: NCI-H226
[19] = tested on: EKVX
[20] = tested on: HCC 2998

Row | SMILES | GI50 [1] | GI50 [2] | GI50 [3] | GI50 [4] | GI50 [5] | GI50 [6] | GI50 [7] | GI50 [8] | GI50 [9] | GI50 [10] | GI50 [11] | GI50 [12] | GI50 [13] | GI50 [14] | GI50 [15] | GI50 [16] | GI50 [17] | GI50 [18] | GI50 [19] | GI50 [20]
1 | COc1ccc2nc3c([N+](=O)[O-])ccc(NCCN(C)C)c3c(N)c2c1 | 0.479 µM (active) | 1.91 µM (inactive) | 1.34 µM (inactive) | 1.55 µM (inactive) | 1.47 µM (inactive) | 1.73 µM (inactive) | 1.34 µM (inactive) | 0.695 µM (active) | 0.0703 µM (active) | 1.17 µM (inactive) | 0.181 µM (active) | 1.61 µM (inactive) | 1.82 µM (inactive) | 0.145 µM (active) | 1.66 µM (inactive) | 1.66 µM (inactive) | 1.6 µM (inactive) | 1.97 µM (inactive) | 1.71 µM (inactive) | 
2 | N#CC(C(=O)O)C(c1c(Cl)cccc1Cl)C(C#N)C(=O)O (stereo not given) | > 100 µM (inactive) | > 100 µM (inactive) | > 100 µM (inactive) | > 100 µM (inactive) | > 100 µM (inactive) | > 100 µM (inactive) | > 100 µM (inactive) | > 100 µM (inactive) | > 100 µM (inactive) | > 100 µM (inactive) | > 100 µM (inactive) | > 100 µM (inactive) | > 100 µM (inactive) | > 100 µM (inactive) | > 100 µM (inactive) | > 100 µM (inactive) | > 100 µM (inactive) | > 100 µM (inactive) | > 100 µM (inactive) | 
3 | O=S(=O)(N/N=C1\CC2CCC1C2)c1ccccc1 (stereo not given) | > 100 µM (inactive) | > 100 µM (inactive) | > 100 µM (inactive) | > 100 µM (inactive) | > 100 µM (inactive) | > 100 µM (inactive) | > 100 µM (inactive) | > 100 µM (inactive) | > 100 µM (inactive) |  | > 100 µM (inactive) | > 100 µM (inactive) | > 100 µM (inactive) | > 100 µM (inactive) | > 100 µM (inactive) | > 100 µM (inactive) | > 100 µM (inactive) | > 100 µM (inactive) | > 100 µM (inactive) | 
4 | c1ccc(-c2ccc(-c3ccc(C4=NCCN4)cc3)o2)cc1 | 1.82 µM (inactive) | 2.15 µM (inactive) | 2.8 µM (inactive) | 2.64 µM (inactive) | 2.4 µM (inactive) |  |  | 2.17 µM (inactive) | 0.94 µM (active) | 2.65 µM (inactive) | 2 µM (inactive) | 5.36 µM (inactive) | 1.77 µM (inactive) | 1.77 µM (inactive) | 3.59 µM (inactive) | 1.92 µM (inactive) | 5.41 µM (inactive) | 2.99 µM (inactive) | 3.37 µM (inactive) | 1.35 µM (inactive)
5 | Cc1nnc2nc(-c3ccc(Cl)cc3Cl)cc(-c3ccc(Cl)cc3)n12 | 15.5 µM (inactive) | > 100 µM (inactive) | 83.9 µM (inactive) | 76.4 µM (inactive) | 82.6 µM (inactive) | > 100 µM (inactive) | > 100 µM (inactive) | 1.47 µM (inactive) | 35.6 µM (inactive) | 89.1 µM (inactive) | > 100 µM (inactive) | > 100 µM (inactive) | > 100 µM (inactive) | > 100 µM (inactive) | > 100 µM (inactive) | > 100 µM (inactive) | > 100 µM (inactive) | > 100 µM (inactive) |  | 
6 | CC(=O)/C(=C/NC(=S)Nc1ccc(Cl)c(Cl)c1)C(=O)Nc1ccccc1C | 16 µM (inactive) | 31.7 µM (inactive) | 34.5 µM (inactive) | 34.1 µM (inactive) | 38.5 µM (inactive) | 25.3 µM (inactive) |  | 22 µM (inactive) |  | 4.65 µM (inactive) | 44.1 µM (inactive) | 30.9 µM (inactive) | 19 µM (inactive) | 33.7 µM (inactive) | 18.9 µM (inactive) | 33 µM (inactive) | 43.8 µM (inactive) | 13.8 µM (inactive) | 21.5 µM (inactive) | 32.3 µM (inactive)
7 | CCCNC(=O)NNC(=O)c1c[nH]c2nc(C)ccc2c1=O | > 100 µM (inactive) | > 100 µM (inactive) | > 100 µM (inactive) | > 100 µM (inactive) | > 100 µM (inactive) | > 100 µM (inactive) | > 100 µM (inactive) |  | > 100 µM (inactive) | > 100 µM (inactive) | > 100 µM (inactive) |  | > 100 µM (inactive) | > 100 µM (inactive) | > 100 µM (inactive) | > 100 µM (inactive) | > 100 µM (inactive) | > 100 µM (inactive) | > 100 µM (inactive) | 
8 | COc1cc(CN[C@H]2CCc3cc(OC)c(OC)c(OC)c3-c3ccc(SC)c(=O)cc32)cc(OC)c1 | 0.452 µM (active) | 0.0566 µM (active) | 0.043 µM (active) | 0.0376 µM (active) | 0.0361 µM (active) |  | 0.0575 µM (active) | 0.187 µM (active) | 0.0324 µM (active) |  | 0.0347 µM (active) | 0.0284 µM (active) | 0.0238 µM (active) | 0.0399 µM (active) | 0.0481 µM (active) | 0.0324 µM (active) | 0.0807 µM (active) | 0.0318 µM (active) | 0.0828 µM (active) | 0.0319 µM (active)

— ChEMBL document CHEMBL1201862, “PubChem BioAssay data set” (2004)
